{
  "source": "PubChem BioAssay (NCI)",
  "assay_in_all_cases": "growth of human tumour cells (NCI), 48 h",
  "key": {"T-47D breast": {"test_system": "T-47D breast"}, "HOP-92 NSCLC": {"test_system": "HOP-92 NSCLC"}, "NCI-H522 lung": {"test_system": "NCI-H522 lung"}, "M14 melanoma": {"test_system": "M14 melanoma"}, "U251 CNS": {"test_system": "U251 CNS"}, "CAKI-1 renal": {"test_system": "CAKI-1 renal"}, "KM12 colon": {"test_system": "KM12 colon"}, "MDA-MB-231 breast": {"test_system": "MDA-MB-231 breast"}, "UO-31 renal": {"test_system": "UO-31 renal"}, "CCRF-CEM leukemia": {"test_system": "CCRF-CEM leukemia"}, "SW-620 colon": {"test_system": "SW-620 colon"}, "MOLT-4 leukemia": {"test_system": "MOLT-4 leukemia"}, "A549 NSCLC": {"test_system": "A549 NSCLC"}, "NCI-H23 lung": {"test_system": "NCI-H23 lung"}, "EKVX NSCLC": {"test_system": "EKVX NSCLC"}, "SN12C renal": {"test_system": "SN12C renal"}, "HS 578T breast": {"test_system": "HS 578T breast"}, "786-0 renal": {"test_system": "786-0 renal"}, "MDA-MB-435": {"test_system": "MDA-MB-435"}, "SK-MEL-5 melanoma": {"test_system": "SK-MEL-5 melanoma"}, "SF-539 CNS": {"test_system": "SF-539 CNS"}, "BT-549 breast": {"test_system": "BT-549 breast"}, "NCI/ADR-RES ovarian": {"test_system": "NCI/ADR-RES ovarian"}, "DU-145 prostate": {"test_system": "DU-145 prostate"}, "HOP-62 NSCLC": {"test_system": "HOP-62 NSCLC"}, "OVCAR-4 ovarian": {"test_system": "OVCAR-4 ovarian"}, "COLO 205 colon": {"test_system": "COLO 205 colon"}, "HCC-2998 colon": {"test_system": "HCC-2998 colon"}, "OVCAR-5 ovarian": {"test_system": "OVCAR-5 ovarian"}, "RXF 393 renal": {"test_system": "RXF 393 renal"}, "PC-3 prostate": {"test_system": "PC-3 prostate"}, "OVCAR-8 ovarian": {"test_system": "OVCAR-8 ovarian"}, "SF-295 CNS": {"test_system": "SF-295 CNS"}, "SNB-19 CNS": {"test_system": "SNB-19 CNS"}, "SNB-75 CNS": {"test_system": "SNB-75 CNS"}, "NCI-H460 lung": {"test_system": "NCI-H460 lung"}, "A498 renal": {"test_system": "A498 renal"}, "NCI-H226 lung": {"test_system": "NCI-H226 lung"}, "RPMI-8226 leukemia": {"test_system": "RPMI-8226 leukemia"}, "OVCAR-3 ovarian": {"test_system": "OVCAR-3 ovarian"}, "TK-10 renal": {"test_system": "TK-10 renal"}, "MCF7 breast": {"test_system": "MCF7 breast"}, "SK-MEL-28 melanoma": {"test_system": "SK-MEL-28 melanoma"}, "K-562 leukemia": {"test_system": "K-562 leukemia"}, "HL-60(TB) leukemia": {"test_system": "HL-60(TB) leukemia"}, "UACC-257 melanoma": {"test_system": "UACC-257 melanoma"}, "SR leukemia": {"test_system": "SR leukemia"}, "HCT-116 colon": {"test_system": "HCT-116 colon"}, "UACC-62 melanoma": {"test_system": "UACC-62 melanoma"}, "SF-268 CNS": {"test_system": "SF-268 CNS"}, "IGROV1 ovarian": {"test_system": "IGROV1 ovarian"}, "MALME-3M melanoma": {"test_system": "MALME-3M melanoma"}, "SK-MEL-2 melanoma": {"test_system": "SK-MEL-2 melanoma"}},
  "note": "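Assay format: 96-well plates, 48-hour exposure. TGI: total growth inhibition.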",
  "data": [
    {"compound": "O=CC1C(Cl)=Nc2nc3ccccc3n2C1c1ccc([N+](=O)[O-])cc1", "note": "(stereo not drawn)", "values": [
      {"measurement": "TGI", "setting": "T-47D breast", "result": 4.19, "unit": "µM"},
      {"measurement": "TGI", "setting": "HOP-92 NSCLC", "result": 20.7, "unit": "µM"},
      {"measurement": "TGI", "setting": "NCI-H522 lung", "result": 12.8, "unit": "µM"},
      {"measurement": "TGI", "setting": "M14 melanoma", "result": "> 100", "unit": "µM"},
      {"measurement": "TGI", "setting": "U251 CNS", "result": 44.5, "unit": "µM"},
      {"measurement": "TGI", "setting": "CAKI-1 renal", "result": 7.65, "unit": "µM"},
      {"measurement": "TGI", "setting": "KM12 colon", "result": 82.9, "unit": "µM"},
      {"measurement": "TGI", "setting": "MDA-MB-231 breast", "result": 45.4, "unit": "µM"},
      {"measurement": "TGI", "setting": "UO-31 renal", "result": 14.8, "unit": "µM"},
      {"measurement": "TGI", "setting": "CCRF-CEM leukemia", "result": "> 100", "unit": "µM"},
      {"measurement": "TGI", "setting": "SW-620 colon", "result": "> 100", "unit": "µM"},
      {"measurement": "TGI", "setting": "MOLT-4 leukemia", "result": 6.29, "unit": "µM"},
      {"measurement": "TGI", "setting": "A549 NSCLC", "result": "> 100", "unit": "µM"},
      {"measurement": "TGI", "setting": "NCI-H23 lung", "result": 57.1, "unit": "µM"},
      {"measurement": "TGI", "setting": "EKVX NSCLC", "result": 53.5, "unit": "µM"},
      {"measurement": "TGI", "setting": "SN12C renal", "result": 51.4, "unit": "µM"},
      {"measurement": "TGI", "setting": "HS 578T breast", "result": "> 100", "unit": "µM"},
      {"measurement": "TGI", "setting": "786-0 renal", "result": "> 100", "unit": "µM"},
      {"measurement": "TGI", "setting": "MDA-MB-435", "result": 27.8, "unit": "µM"},
      {"measurement": "TGI", "setting": "SK-MEL-5 melanoma", "result": 37.9, "unit": "µM"},
      {"measurement": "TGI", "setting": "SF-539 CNS", "result": "> 100", "unit": "µM"},
      {"measurement": "TGI", "setting": "BT-549 breast", "result": 2.58, "unit": "µM"},
      {"measurement": "TGI", "setting": "NCI/ADR-RES ovarian", "result": "> 100", "unit": "µM"},
      {"measurement": "TGI", "setting": "DU-145 prostate", "result": 32.4, "unit": "µM"},
      {"measurement": "TGI", "setting": "HOP-62 NSCLC", "result": "> 100", "unit": "µM"},
      {"measurement": "TGI", "setting": "OVCAR-4 ovarian", "result": 30.9, "unit": "µM"},
      {"measurement": "TGI", "setting": "COLO 205 colon", "result": "> 100", "unit": "µM"},
      {"measurement": "TGI", "setting": "HCC-2998 colon", "result": 49.4, "unit": "µM"},
      {"measurement": "TGI", "setting": "OVCAR-5 ovarian", "result": "> 100", "unit": "µM"},
      {"measurement": "TGI", "setting": "RXF 393 renal", "result": 7.15, "unit": "µM"},
      {"measurement": "TGI", "setting": "PC-3 prostate", "result": "> 100", "unit": "µM"},
      {"measurement": "TGI", "setting": "OVCAR-8 ovarian", "result": 27.7, "unit": "µM"},
      {"measurement": "TGI", "setting": "SF-295 CNS", "result": 50.7, "unit": "µM"},
      {"measurement": "TGI", "setting": "SNB-19 CNS", "result": 36.3, "unit": "µM"},
      {"measurement": "TGI", "setting": "SNB-75 CNS", "result": 5.28, "unit": "µM"},
      {"measurement": "TGI", "setting": "NCI-H460 lung", "result": 94, "unit": "µM"},
      {"measurement": "TGI", "setting": "A498 renal", "result": 47.4, "unit": "µM"},
      {"measurement": "TGI", "setting": "NCI-H226 lung", "result": 9.27, "unit": "µM"},
      {"measurement": "TGI", "setting": "RPMI-8226 leukemia", "result": "> 100", "unit": "µM"},
      {"measurement": "TGI", "setting": "OVCAR-3 ovarian", "result": "> 100", "unit": "µM"},
      {"measurement": "TGI", "setting": "TK-10 renal", "result": 16.1, "unit": "µM"},
      {"measurement": "TGI", "setting": "MCF7 breast", "result": 67.9, "unit": "µM"},
      {"measurement": "TGI", "setting": "SK-MEL-28 melanoma", "result": 5.09, "unit": "µM"},
      {"measurement": "TGI", "setting": "K-562 leukemia", "result": 78.5, "unit": "µM"},
      {"measurement": "TGI", "setting": "HL-60(TB) leukemia", "result": 20.2, "unit": "µM"},
      {"measurement": "TGI", "setting": "UACC-257 melanoma", "result": 31.5, "unit": "µM"},
      {"measurement": "TGI", "setting": "SR leukemia", "result": 5.97, "unit": "µM"},
      {"measurement": "TGI", "setting": "HCT-116 colon", "result": "> 100", "unit": "µM"},
      {"measurement": "TGI", "setting": "UACC-62 melanoma", "result": 35.6, "unit": "µM"},
      {"measurement": "TGI", "setting": "SF-268 CNS", "result": 62.2, "unit": "µM"},
      {"measurement": "TGI", "setting": "IGROV1 ovarian", "result": 26, "unit": "µM"},
      {"measurement": "TGI", "setting": "MALME-3M melanoma", "result": 31.6, "unit": "µM"},
      {"measurement": "TGI", "setting": "SK-MEL-2 melanoma", "result": 21.4, "unit": "µM"}
    ]}
  ]
}
